row,SMILES,melting point [°C]
1,CC#CCOc1cc(/C=C/C(=O)Nc2ccccc2C(=O)O)ccc1OC,170 to 171
2,CCc1nc(OC)c(NC(=O)N2CCN(c3cc(C)cc(C)c3)CC2)cc1C,135 to 136
3,COc1ccc(C=CCO)cc1OC,70 to 71
4,CCOC(=O)N1CCc2c(nc3ccccc3c2C)C(Cl)C1 (stereo not given),131
5,Nc1cc(N2CC(c3cccs3)OC2=O)ccn1 (stereo not given),151 to 153
6,CC(C)c1cccc(C(C)C)c1N1C(=O)c2cccc3c(C(N)=O)ccc(c23)C1=O,233
7,CC1(C)CCC(C)(C)c2cc(S(=O)c3ccc(C(=O)O)cc3)ccc21 (stereo not given),214 to 216
8,O=C1Nc2ccccc2C12COc1cc3c(cc12)CCO3 (stereo not given),105 to 107
9,COC(=O)[C@@H](CCCc1ccc(OCc2nc(-c3ccco3)oc2C)c(OC)c1)OC(N)=O,110 to 111
10,COc1cc(C(=O)c2nc(-c3ccc[nH]3)c3ccccn23)ccc1N,136
11,CCCCc1nn(-c2ccccc2C(F)(F)F)c(=O)n1Cc1ccc(-c2ccccc2S(=O)(=O)NC(=O)c2ccccc2Cl)cc1F,88 to 90
12,COC(=O)c1sc2c(c1C)c1ccccc1n2C,166 to 167
13,Cc1ccc(C(=O)Nc2ccccc2O)cc1F,181 to 183
14,CC1(C)CCc2cc(C#N)ccc2O1,30 to 31
15,O=c1cc2c(nn1-c1ccc(Cl)cc1)-c1cccnc1CC2,166 to 167
16,COC(=O)c1cc(I)ccc1NS(C)(=O)=O,119 to 120
17,CSc1cc2c(cc1C(F)(F)F)N(C(=O)Nc1cccc(C(=O)NCCN(C(C)C)C(C)C)c1)CC2,97 to 99
18,COC(C)C(=O)Nc1ccc(C2=NNC(=O)CC2)cc1 (stereo not given),245 to 247
19,CCCOC(=O)C1=C(C)NC(C)=C(C(=O)OC)C1c1ccccc1[N+](=O)[O-] (stereo not given),127 to 128
20,CC1(CCCOc2ccc([N+](=O)[O-])c(C=C3NC(=O)NC3=O)c2)OCCO1,175 to 180
21,COc1ccccc1CC(=O)N1C[C@H]2C[C@H](CO)C[C@](O)(c3ccccc3OC)[C@H]2C1 (racemic),162
22,Oc1cccc(C2CCCN2Cc2cccnc2)c1 (stereo not given),129 to 131
23,CCCCOC(C(=O)O)c1ccc2c(c1)C(C)(C)CCC2(C)C (racemic),79 to 82
24,Cc1cccc(Nc2cc(Cl)nc(SCC(N)=O)n2)c1C,188 to 191
25,O=C(C[C@@H](CCCC1CCCCC1)c1nc(CN2CCOCC2)co1)NO,117 to 119

row,SMILES,melting point [°C]
1,COc1cccc2c1CCNCC2,44.3 to 45
2,COc1cccc2c1c(N1CCOCC1)nc1c(-c3noc(C4CC4)n3)ncn12,227 to 228
3,CCOC(=O)CC(=NNc1ccc(C(=O)O)cc1C)C(C)=O,161 to 162
4,Cc1cc(N2CCN(c3ccccc3)CC2)c(C#N)c(Cl)n1,139 to 140
5,CC(C#N)(COc1ccc(Cl)cc1Cc1ccccc1)NC(=O)c1ccc(OC(F)(F)F)cc1 (stereo not given),103 to 104
6,COC(=O)c1ccc(S(C)(=O)=O)c(-c2ccon2)c1C,87 to 89
7,CN(C)C(=O)C(C)(C)n1ccc(-c2ccccc2)n1,99.5 to 102
8,COc1ccccc1C(=O)Nc1ccc(Cl)cc1,56.1 to 58.7
9,CC(C(=O)O)c1ccc(-c2ccc(F)cc2F)cc1 (stereo not given),110 to 113
10,CCN(CC)CCSC1=C(C#N)C(c2ccc(OC)cc2)(c2cccnc2)C(=O)N1 (stereo not given),133
11,COc1ccc(C(=O)Nc2ccc(C(=O)NC(C)(C)C)cc2)cc1C12CC3CC(CC(C3)C1)C2,270 to 273
12,Cc1cc(C)cc(Oc2c(C=O)c(C)[nH]c(=O)c2I)c1,> 260
13,COc1nc(N)nc(C2CC2)n1,158 to 159
14,COc1ccc(S(=O)(=O)C[N+](=O)[O-])s1,70 to 71
15,CC(=O)N1N=C(c2ccc([N+](=O)[O-])cc2)c2cc(Cl)c(Cl)cc2CC1C (stereo not given),198 to 200
16,Clc1ccc2c(c1)C(c1ccccc1)=NCc1nnc(Cc3ccccc3)n1-2,190 to 192
17,O=C1NCC(C(=O)O)S1 (stereo not given),148 to 150
18,N#Cc1ccc(C(=O)Nc2cc(C(=O)NCc3ccccc3)ccn2)cc1,180 to 181
19,Oc1c(-c2cccnc2)cccc1-c1cccnc1,211
20,Cc1c(CCN(C)C)c2cc(S(=O)(=O)c3ccccc3)ccc2n1C,170 to 172
21,COc1ccc([C@@H](CC(N)=O)N2Cc3ccccc3C2=O)cc1OC,191 to 193
22,C[C@@H](Nc1ncnc2[nH]c(-c3cccc([N+](=O)[O-])c3)cc12)c1ccccc1,> 250
23,COc1cc(O)c(C(=O)C=Cc2ccc(SC)cc2)c(OC)c1,135
24,COc1ccc(CCN(C)CCOc2ccc(NC(=O)c3cccc4c(=O)c5ccccc5[nH]c34)cc2)cc1,165
25,CC(C)(C)Cc1ccc(C#N)c(=O)[nH]1,211 to 212

row,SMILES,melting point [°C]
1,O=S(=O)(CCl)c1cccc2ccccc12,103 to 105
2,COC(=O)c1cc(-c2ccncc2)ccc1C(=O)N1CCN(C(=O)OC(C)(C)C)CC1,144 to 146
3,Nc1cccc(SCc2ccccc2)n1,65 to 66
4,O=C(Nc1ccc(C(F)(F)F)cc1)C12CC3CC(CC(C3)C1)C2,189 to 193
5,O=C(OCCOc1ccc2ncnn2n1)C1CN(C(c2ccccc2)c2ccccc2)CCN1 (stereo not given),157 to 159
6,CCCCc1nc(C(F)(F)CCC)nn1Cc1ccc(-c2ccccc2-c2nnn[nH]2)cc1,165 to 168
7,O=C(O)c1cn(C2CC2)c2c(F)c(N3CCNCC3)c(F)c(F)c2c1=O,208 to 213
8,Cc1oc2ccc(NC(=O)c3ccccc3)nc2c1CCN(C)C,119 to 120
9,CC(=O)NCc1cc(CCC(=O)O)no1,134
10,Brc1ccc2nc(COc3ccc(CCCn4ccnc4)cc3)cn2c1,103 to 104
11,COc1cc(CCCC2OC(=O)NC2=O)ccc1O (stereo not given),147 to 148
12,C(=Nc1cccc2ccccc12)=Nc1cccc2ccccc12,91
13,O=[N+]([O-])CS(=O)(=O)c1ccc2c(c1)CCN2,139
14,CNC(=O)NC(=O)C(CC1CCCC1)c1ccc(S(C)(=O)=O)c([N+](=O)[O-])c1 (stereo not given),241 to 242
15,Nc1nc2c(s1)CCN(CC=Cc1ccc3[nH]ccc3c1)CC2,60 to 65
16,O=c1ncc(Br)cn1COCc1ccccc1,169
17,CC1(C)CC(c2ccccn2)c2cc(Cl)ccc2O1 (stereo not given),124 to 125
18,O=C(OCCCc1nc(-c2ccc(Cl)cc2)co1)c1ccccc1,47 to 47.5
19,CN1C(=O)C(c2ccncc2)(c2cccc(-c3cc(F)ccc3F)c2)N=C1N (stereo not given),200 to 202
20,CCOC(=O)CNCc1cc(N(C)C)ccc1[N+](=O)[O-],70 to 72
21,CCOCc1nc2c(N)nc3cc(OCCCCCCNC(=O)NC(C)C)ccc3c2n1CC(C)(C)NC(=O)NC(C)C,205 to 209
22,N[C@@H](Cc1ccccc1)C(=O)N(C(=O)Cc1cc(F)cc(F)c1)[C@@H]1C(=O)Nc2ccccc2S[C@@H]1c1ccccc1,115 to 120
23,COCc1nc(C=O)c[nH]1,100 to 103
24,CC1=C(c2ccccc2)C(=O)N(C(C)(C)C(=O)c2cc(F)cc(F)c2)CO1,157 to 158
25,COC(=O)c1cn(-c2ccc(OC(C)=O)cc2C)c(C=O)cc1=O,216 to 217

row,SMILES,melting point [°C]
1,O=C(O)COc1cccc2c1CCc1sc(NC(c3ccccc3)c3ccccc3)nc1-2,250 to 252
2,N#Cc1ccc(OCCCNCCO)cc1,88
3,NC(=O)NCCNc1n[nH]c2ncnc(Nc3cccc(Cl)c3)c12,212 to 214
4,COC1=C(OC)C(=O)C(CCCCCCCCCCCCCCCCCCO)=C(C)C1=O,81
5,COCCOCCOCCn1c2ccc(C=O)cc2c2cc(C=O)ccc21,108 to 109
6,Nc1cc(C(O)=S)cc(Cc2ccccc2)c1C(=O)c1ccccc1,141 to 142
7,CC(C)C(=O)NC1CCc2c(c3cc(C#N)ccc3n2Cc2ccccc2C(F)(F)F)C1 (stereo not given),222 to 225
8,CCOC(=O)c1ccc(OCc2ccc(Cl)cc2)cc1,83 to 84
9,CC(=O)c1cccc(NC(=O)C=C(C)Cl)c1,152
10,O=C(Nc1ccccn1)Nc1cccc2c1C1CC3(CCN1C2=O)SCCS3 (stereo not given),242
11,O=C(O)c1c(C=C2CC2)c2ccccc2n1Cc1cccc(C(F)(F)F)c1,148 to 150
12,O=C(Cc1c[nH]c2ccccc12)Nc1cc2c(cn1)[nH]c1ccccc12,252 to 254
13,O=C([C@@H](Cc1ccc(Cl)cc1)NC1CCC(O)(c2ccc(F)cc2)CC1)N1CCC(Cn2cncn2)(C2CCCCC2)CC1 (stereo not given in full),150
14,O=C(O)c1cccc(CNC2CC3CC2C2CCCC32)c1 (stereo not given),258 to 261
15,c1ccc(OC2CN(C(c3ccccc3)c3ccccc3)C2)cc1,83 to 85
16,O=C1c2cccc(NC(=S)Nc3cc[nH]n3)c2C2CC3(CCN12)SCCS3 (stereo not given),185
17,Nc1ccc2c(ccn2C(=O)c2ccc(F)cc2)c1,205 to 207
18,CCc1cc2oc3cc(-c4ccccc4Cl)c4c(c3c2cc1OC)C(=O)NC4=O,252 to 257
19,NC(=S)NN=C(CCC(=O)NCc1ccccc1)c1ccccc1,162 to 164
20,Cc1ccc(S(=O)(=O)NC(=O)N2C(=O)CN2C(c2ccccc2)c2ccccc2)cc1,115 to 123
21,Cn1cc(CCN2C(=O)c3ccccc3C2=O)c2cc(CC(N)=O)ccc21,200 to 202
22,O=C(O)COc1cccc(-c2c3ccccc3c(Br)c3sc4ccccc4c23)c1,180 to 181
23,COC(=O)C1=C(CCc2ccccc2OC)NC(CC(=O)N2CCN(CCCN(C)C)CC2)=C(C(=O)OC)C1c1c(Cl)cccc1Cl (stereo not given),156 to 158
24,C=C(C)C(=O)OCCN(CCOC(=O)C(=C)C)c1ccc(N=Nc2ccc([N+](=O)[O-])cc2)cc1,88 to 90
25,Cc1ncc(CN2CCc3ccc(OCc4ccccc4)cc3C2)c(N)n1,151 to 153
